From US20230265116A1, “DEGRADATION OF (EGFR) BY CONJUGATION OF EGFR INHIBITORS WITH E3 LIGASE LIGAND AND METHODS OF USE” (BEIGENE, LTD., priority 2020, published 2023)

What was measured:
[1] = target: T1, EGFR L858R/T790M/C797S (BaF3-LTC cells) (Homo sapiens, UniProt P00533, C797S/L858R/T790M); test: EGFR degradation HTRF assay, BaF3-LTC cells; assay type: cell-based; details: BaF3-LTC cells; for DC50: EGFR degradation, IC50 (DC50) from curve fit, read-out: DC50(nM) BaF3-LTC; for Dmax: maximum percentage of inhibition (degradation), read-out: Dmax (%) BaF3-LTC
T1 construct: expressed in transfected cells; host or cells: BaF3
T1 sequence (P00533 25-1210 T790M/C797S/L858R): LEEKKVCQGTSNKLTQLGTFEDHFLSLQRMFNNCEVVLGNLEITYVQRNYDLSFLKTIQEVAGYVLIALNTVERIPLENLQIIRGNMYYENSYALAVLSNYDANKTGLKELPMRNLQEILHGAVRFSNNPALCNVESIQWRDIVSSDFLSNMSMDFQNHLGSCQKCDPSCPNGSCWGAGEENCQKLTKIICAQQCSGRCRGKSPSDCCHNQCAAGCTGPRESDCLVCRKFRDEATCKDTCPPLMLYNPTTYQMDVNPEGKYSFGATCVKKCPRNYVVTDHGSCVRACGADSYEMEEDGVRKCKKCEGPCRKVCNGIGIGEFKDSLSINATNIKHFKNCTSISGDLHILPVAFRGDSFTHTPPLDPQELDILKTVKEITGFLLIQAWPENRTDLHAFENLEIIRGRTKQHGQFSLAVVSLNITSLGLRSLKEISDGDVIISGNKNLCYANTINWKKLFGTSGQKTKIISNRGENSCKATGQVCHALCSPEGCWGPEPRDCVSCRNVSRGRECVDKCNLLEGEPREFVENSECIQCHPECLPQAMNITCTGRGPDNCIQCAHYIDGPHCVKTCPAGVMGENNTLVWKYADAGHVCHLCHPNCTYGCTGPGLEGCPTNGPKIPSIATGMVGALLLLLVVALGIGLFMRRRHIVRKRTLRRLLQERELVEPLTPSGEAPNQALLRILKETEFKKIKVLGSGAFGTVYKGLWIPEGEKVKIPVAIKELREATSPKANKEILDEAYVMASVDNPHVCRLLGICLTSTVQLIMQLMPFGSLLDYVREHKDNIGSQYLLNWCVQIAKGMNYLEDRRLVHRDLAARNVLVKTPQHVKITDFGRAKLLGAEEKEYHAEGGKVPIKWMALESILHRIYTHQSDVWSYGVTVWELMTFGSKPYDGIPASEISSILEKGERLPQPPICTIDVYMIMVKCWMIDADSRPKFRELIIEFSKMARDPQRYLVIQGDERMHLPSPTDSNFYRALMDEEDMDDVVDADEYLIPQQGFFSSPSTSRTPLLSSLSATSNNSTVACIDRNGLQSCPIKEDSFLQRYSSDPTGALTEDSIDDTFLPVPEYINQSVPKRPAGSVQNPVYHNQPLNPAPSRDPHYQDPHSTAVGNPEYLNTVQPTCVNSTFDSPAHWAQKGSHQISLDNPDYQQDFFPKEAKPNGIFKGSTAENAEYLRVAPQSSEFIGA
Outline: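 Cells treated 16 h at 37 °C, 5% CO2 in medium with 0.2% DMSO; top final concentration 10 uM, 5-fold dilution, 8 doses. Lysates read by HTRF (665/620 nm); degradation % versus DMSO high control, DC50 from four-parameter fit, Dmax as maximal degradation.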

[2] = test system: EGFR Del19/T790M/C797S (H1975-clone #28); test: EGFR degradation HTRF assay, H1975-clone #28 DTC cells; assay type: cell-based; details: H1975 # 28 DTC cells; for DC50: EGFR degradation, IC50 (DC50) from curve fit, read-out: DC50(nM) H1975 # 28 DTC; for Dmax (%) H1975 # 28 DTC: maximum percentage of inhibition (degradation)
Outline: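 The test uses H1975 clonal lines carrying lentiviral mutant EGFR with endogenous copies removed, treated 16h at 37° C., 5% CO2. EGFR left in the lysate is quantified by HTRF, and DC50 is derived from an 8-dose curve starting at 10 uM final.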

With `CCc1cc(Nc2ncc(Br)c(Nc3ccc4nc(C)sc4c3P(C)(C)=O)n2)c(OC)cc1N1CCC(N2CCN(CCc3cc(F)c(C4CCC(=O)NC4=O)c(F)c3)CC2)CC1` (stereo not drawn) [Example 666, 3-(4-(2-(4-(1-(4-((5-bromo-4-((7-(dimethylphosphoryl)-2-methylbenzo[d]thiazol-6-yl)amino)pyrimidin-2-yl)amino)-2-ethyl-5-methoxyphenyl)piperidin-4-yl)piperazin-1-yl)ethyl)-2,6-difluorophenyl)piperidine-2,6-dione] the DC50 [1] was 11.1 nM, the Dmax [1] was 93.2% and the DC50 [2] was 2.4 nM. The “Dmax (%) H1975 # 28 DTC” value [2] was 86.11%.
`COc1cc(N2CCC3(CCN(C(=O)[C@@H]4CCN(c5cc(F)c([C@H]6CCC(=O)NC6=O)c(F)c5)C4)CC3)CC2)c(C)cc1Nc1ncc(Br)c(Nc2ccc3nccnc3c2P(C)(C)=O)n1` [Example 667, (R)-3-(4-((R)-3-(9-(4-((5-bromo-4-((5-(dimethylphosphoryl)quinoxalin-6-yl)amino)pyrimidin-2-yl)amino)-5-methoxy-2-methylphenyl)-3,9-diazaspiro[5.5]undecane-3-carbonyl)pyrrolidin-1-yl)-2,6-difluorophenyl)piperidine-2,6-dione] was tested, and the DC50 [1] was 13.3 nM, the Dmax [1] was 84% and the DC50 [2] was 3.69 nM. The “Dmax (%) H1975 # 28 DTC” value [2] was 77.43%.
`CCc1ncc2c(P(C)(C)=O)c(Nc3nc(Nc4cc(C)c(N5CCC(N6CCN(CCc7cc(F)c([C@H]8CCC(=O)NC8=O)c(F)c7)CC6)CC5)cc4OC)ncc3Br)ccc2n1` [Example 748, (R)-3-(4-(2-(4-(1-(4-((5-bromo-4-((5-(dimethylphosphoryl)-2-ethylquinazolin-6-yl)amino)pyrimidin-2-yl)amino)-5-methoxy-2-methylphenyl)piperidin-4-yl)piperazin-1-yl)ethyl)-2,6-difluorophenyl)piperidine-2,6-dione] was tested, and the DC50 [1] was 5.75 nM, the DC50 [2] was 0.455 nM and the “Dmax (%) H1975 # 28 DTC” value [2] was 91.78%.
`CCc1cc(Nc2ncc(Br)c(Nc3ccc4nc(C)ccc4c3P(C)(C)=O)n2)c(OC)cc1N1CCC(N2CCN(C(=O)CC3CN(c4cc(F)c([C@H]5CCC(=O)NC5=O)c(F)c4)C3)CC2)CC1` (single isomer, unassigned) [Example 573] gave a DC50 [1] of 3.36 nM, a Dmax [1] of 97.7% and a DC50 [2] of 0.751 nM. For the same compound, the “Dmax (%) H1975 # 28 DTC” value [2] was 81.91%.
`CCc1cc(Nc2ncc(Br)c(Nc3ccc4nc(C)ccc4c3P(C)(C)=O)n2)c(OC2CC2)cc1N1CCC(N2CCN(CCc3ccc4c(c3)oc(=O)n4C3CCC(=O)NC3=O)CC2)CC1` (stereo not drawn) [Example 557, 3-(6-(2-(4-(1-(4-((5-bromo-4-((5-(dimethylphosphoryl)-2-methylquinolin-6-yl)amino)pyrimidin-2-yl)amino)-5-cyclopropoxy-2-ethylphenyl)piperidin-4-yl)piperazin-1-yl)ethyl)-2-oxobenzo[d]oxazol-3(2H)-yl)piperidine-2,6-dione] showed a DC50 [1] of 6.8 nM, a Dmax [1] of 89.1% and a DC50 [2] of 0.773 nM. The “Dmax (%) H1975 # 28 DTC” value [2] was 92.3%.
In the case of `COc1cc(N2CCC(N3CCN(C(=O)[C@H]4CN(c5cc(F)c([C@H]6CCC(=O)NC6=O)c(F)c5)CC4(C)C)CC3)CC2)c(C)cc1Nc1ncc(Br)c(Nc2ccc3nc(C)c(F)cc3c2P(C)(C)=O)n1` [Example 729, (R)-3-(4-((R)-4-(4-(1-(4-((5-bromo-4-((5-(dimethylphosphoryl)-3-fluoro-2-methylquinolin-6-yl)amino)pyrimidin-2-yl)amino)-5-methoxy-2-methylphenyl)piperidin-4-yl)piperazine-1-carbonyl)-3,3-dimethylpyrrolidin-1-yl)-2,6-difluorophenyl)piperidine-2,6-dione], the DC50 [1] is reported as 5.59 nM, the DC50 [2] is reported as 1.13 nM and the “Dmax (%) H1975 # 28 DTC” value [2] is reported as 88.94%.
Compound `CCc1cc(Nc2ncc(Br)c(Nc3ccc4nc(NC5CC5)ccc4c3P(C)(C)=O)n2)c(OC)cc1N1CCC(N2CCN(CCc3ccc4c(c3)oc(=O)n4C3CCC(=O)NC3=O)CC2)CC1` (stereo not drawn) [Example 633, 3-(6-(2-(4-(1-(4-((5-bromo-4-((2-(cyclopropylamino)-5-(dimethylphosphoryl)quinolin-6-yl)amino)pyrimidin-2-yl)amino)-2-ethyl-5-methoxyphenyl)piperidin-4-yl)piperazin-1-yl)ethyl)-2-oxobenzo[d]oxazol-3(2H)-yl)piperidine-2,6-dione] has a DC50 [1] of 5.12 nM, a Dmax [1] of 91.7% and a DC50 [2] of 0.737 nM. For the same compound, the “Dmax (%) H1975 # 28 DTC” value [2] was 70.09%.
For `CCOc1cc(N2CCC(N3CCN(CCc4c(F)ccc5c4C(C)(C)C(=O)N5C4CCC(=O)NC4=O)CC3)CC2)c(CC)cc1Nc1ncc(Br)c(Nc2ccc3nc(CC)ccc3c2P(C)(C)=O)n1` (stereo not drawn) [Example 647, 3-(4-(2-(4-(1-(4-((5-bromo-4-((5-(dimethylphosphoryl)-2-ethylquinolin-6-yl)amino)pyrimidin-2-yl)amino)-5-ethoxy-2-ethylphenyl)piperidin-4-yl)piperazin-1-yl)ethyl)-5-fluoro-3,3-dimethyl-2-oxoindolin-1-yl)piperidine-2,6-dione], the DC50 [1] was 13.2 nM, the Dmax [1] was 93.2% and the DC50 [2] was 2 nM. The “Dmax (%) H1975 # 28 DTC” value [2] was 66.66%.
For `CCOc1cc(N2CCC(N3CCN(CCc4cc(F)c([C@H]5CCC(=O)NC5=O)c(F)c4)[C@H](CO)C3)CC2)c(CC)cc1Nc1ncc(Br)c(Nc2ccc3nc(CC)ccc3c2P(C)(C)=O)n1` [Example 657, (R)-3-(4-(2-((S)-4-(1-(4-((5-bromo-4-((5-(dimethylphosphoryl)-2-ethylquinolin-6-yl)amino)pyrimidin-2-yl)amino)-5-ethoxy-2-ethylphenyl)piperidin-4-yl)-2-(hydroxymethyl)piperazin-1-yl)ethyl)-2,6-difluorophenyl)piperidine-2,6-dione], the DC50 [1] was 3.3 nM, the Dmax [1] was 87.7% and the DC50 [2] was 0.981 nM. For the same compound, the “Dmax (%) H1975 # 28 DTC” value [2] was 86.35%.
Work on `CCc1ccc2c(P(C)(C)=O)c(Nc3nc(Nc4cc(CC)c(N5CCC(N6CCN(CCc7cc(F)cc8c7oc(=O)n8C7CCC(=O)NC7=O)CC6)CC5)cc4OC)ncc3Br)ccc2n1` (stereo not drawn) [Example 443, 3-(7-(2-(4-(1-(4-((5-bromo-4-((5-(dimethylphosphoryl)-2-ethylquinolin-6-yl)amino)pyrimidin-2-yl)amino)-2-ethyl-5-methoxyphenyl)piperidin-4-yl)piperazin-1-yl)ethyl)-5-fluoro-2-oxobenzo[d]oxazol-3(2H)-yl)piperidine-2,6-dione] yielded a DC50 [1] of 14.6 nM, a Dmax [1] of 81.4% and a DC50 [2] of 0.894 nM. For the same compound, the “Dmax (%) H1975 # 28 DTC” value [2] was 82.38%.
Compound `CCc1ccc2c(P(C)(C)=O)c(Nc3nc(Nc4cc(CC)c(N5CCC(N6CCN(C(=O)[C@@H]7CCN(c8cc(F)c([C@H]9CCC(=O)NC9=O)c(F)c8)C7)CC6)CC5)cc4OC4CC4)ncc3Br)ccc2n1` [Example 655, (R)-3-(4-((R)-3-(4-(1-(4-((5-bromo-4-((5-(dimethylphosphoryl)-2-ethylquinolin-6-yl)amino)pyrimidin-2-yl)amino)-5-cyclopropoxy-2-ethylphenyl)piperidin-4-yl)piperazine-1-carbonyl)pyrrolidin-1-yl)-2,6-difluorophenyl)piperidine-2,6-dione] has a DC50 [1] of 16.4 nM, a Dmax [1] of 90.2% and a DC50 [2] of 4.21 nM. For the same compound, the “Dmax (%) H1975 # 28 DTC” value [2] was 81.86%.
Work on `CCOc1cc(N2CCC(N3CCN(CCc4c(C(F)(F)F)ccc5c4oc(=O)n5C4CCC(=O)NC4=O)CC3)CC2)c(CC)cc1Nc1ncc(Br)c(Nc2ccc3nc(CC)ccc3c2P(C)(C)=O)n1` (stereo not drawn) [Example 724, 3-(7-(2-(4-(1-(4-((5-bromo-4-((5-(dimethylphosphoryl)-2-ethylquinolin-6-yl)amino)pyrimidin-2-yl)amino)-5-ethoxy-2-ethylphenyl)piperidin-4-yl)piperazin-1-yl)ethyl)-2-oxo-6-(trifluoromethyl)benzo[d]oxazol-3(2H)-yl)piperidine-2,6-dione] yielded a DC50 [1] of 55.1 nM, a Dmax [1] of 85.6% and a DC50 [2] of 2.86 nM. The “Dmax (%) H1975 # 28 DTC” value [2] was 75.94%.
With `CCc1cc(Nc2ncc(Br)c(Nc3ccc4nc(NC5CC5)ccc4c3P(C)(C)=O)n2)c(OC)cc1N1CCC(N2CCN(C(=O)[C@@H]3CCN(c4cc(F)c([C@H]5CCC(=O)NC5=O)c(F)c4)C3)CC2)CC1` [Example 652, (R)-3-(4-((R)-3-(4-(1-(4-((5-bromo-4-((2-(cyclopropylamino)-5-(dimethylphosphoryl)quinolin-6-yl)amino)pyrimidin-2-yl)amino)-2-ethyl-5-methoxyphenyl)piperidin-4-yl)piperazine-1-carbonyl)pyrrolidin-1-yl)-2,6-difluorophenyl)piperidine-2,6-dione] the DC50 [1] was 5.23 nM, the Dmax [1] was 81.1% and the DC50 [2] was 1.35 nM. The “Dmax (%) H1975 # 28 DTC” value [2] was 86.65%.
`CCc1ccc2c(P(C)(C)=O)c(Nc3nc(Nc4cc(CC)c(N5CCC(N6CCN(CCc7ccc([C@H]8CCC(=O)NC8=O)cc7)CC6)CC5)cc4OC)ncc3Br)ccc2n1` [Example 654, (R)-3-(4-(2-(4-(1-(4-((5-bromo-4-((5-(dimethylphosphoryl)-2-ethylquinolin-6-yl)amino)pyrimidin-2-yl)amino)-2-ethyl-5-methoxyphenyl)piperidin-4-yl)piperazin-1-yl)ethyl)phenyl)piperidine-2,6-dione] gave a DC50 [1] of 23.2 nM, a Dmax [1] of 74.8% and a DC50 [2] of 2.08 nM. The “Dmax (%) H1975 # 28 DTC” value [2] was 66.53%.
